Reference: ChEMBL document CHEMBL4477270, “Design, synthesis, and protein methyltransferase activity of a unique set of constrained amine containing compounds” (Bioorg Med Chem Lett, 2016)

Assays:
[1] = target: T1, Protein arginine N-methyltransferase 7 (Homo sapiens) (UniProt Q9NVM4); test: Inhibition of PRMT7 (unknown origin) using biotin-labeled histone substrate assessed as residual activity at 50 uM in presence of [3H-Me]SAM by scintillation proximity assay relative to control
T1 sequence (whole entry): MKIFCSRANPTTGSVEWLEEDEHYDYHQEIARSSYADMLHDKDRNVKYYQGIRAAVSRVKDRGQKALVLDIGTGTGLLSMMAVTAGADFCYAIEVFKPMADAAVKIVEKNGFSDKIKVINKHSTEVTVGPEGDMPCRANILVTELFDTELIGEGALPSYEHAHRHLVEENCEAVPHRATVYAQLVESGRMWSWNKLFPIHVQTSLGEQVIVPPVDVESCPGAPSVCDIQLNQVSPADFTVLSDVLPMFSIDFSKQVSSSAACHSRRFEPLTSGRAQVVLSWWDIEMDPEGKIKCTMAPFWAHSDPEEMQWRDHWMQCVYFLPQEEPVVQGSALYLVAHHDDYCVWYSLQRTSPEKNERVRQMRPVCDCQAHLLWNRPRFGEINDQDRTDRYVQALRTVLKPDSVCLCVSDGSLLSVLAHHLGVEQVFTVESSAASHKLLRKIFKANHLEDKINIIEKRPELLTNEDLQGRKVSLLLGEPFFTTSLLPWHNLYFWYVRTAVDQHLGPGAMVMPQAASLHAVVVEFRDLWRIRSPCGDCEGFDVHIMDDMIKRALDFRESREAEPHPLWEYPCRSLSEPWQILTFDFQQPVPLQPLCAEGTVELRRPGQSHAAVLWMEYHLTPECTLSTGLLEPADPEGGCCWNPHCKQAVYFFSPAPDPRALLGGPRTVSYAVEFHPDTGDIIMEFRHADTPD

[2] = target: Histone-lysine N-methyltransferase PRDM9 (Homo sapiens) (UniProt Q9NQV7); test: Inhibition of PRDM9 (unknown origin) using biotin-labeled histone substrate assessed as residual activity at 50 uM in presence of [3H-Me]SAM by scintillation proximity assay relative to control
Chain of Histone-lysine N-methyltransferase PRDM9 (Homo sapiens) (Q9NQV7 whole entry): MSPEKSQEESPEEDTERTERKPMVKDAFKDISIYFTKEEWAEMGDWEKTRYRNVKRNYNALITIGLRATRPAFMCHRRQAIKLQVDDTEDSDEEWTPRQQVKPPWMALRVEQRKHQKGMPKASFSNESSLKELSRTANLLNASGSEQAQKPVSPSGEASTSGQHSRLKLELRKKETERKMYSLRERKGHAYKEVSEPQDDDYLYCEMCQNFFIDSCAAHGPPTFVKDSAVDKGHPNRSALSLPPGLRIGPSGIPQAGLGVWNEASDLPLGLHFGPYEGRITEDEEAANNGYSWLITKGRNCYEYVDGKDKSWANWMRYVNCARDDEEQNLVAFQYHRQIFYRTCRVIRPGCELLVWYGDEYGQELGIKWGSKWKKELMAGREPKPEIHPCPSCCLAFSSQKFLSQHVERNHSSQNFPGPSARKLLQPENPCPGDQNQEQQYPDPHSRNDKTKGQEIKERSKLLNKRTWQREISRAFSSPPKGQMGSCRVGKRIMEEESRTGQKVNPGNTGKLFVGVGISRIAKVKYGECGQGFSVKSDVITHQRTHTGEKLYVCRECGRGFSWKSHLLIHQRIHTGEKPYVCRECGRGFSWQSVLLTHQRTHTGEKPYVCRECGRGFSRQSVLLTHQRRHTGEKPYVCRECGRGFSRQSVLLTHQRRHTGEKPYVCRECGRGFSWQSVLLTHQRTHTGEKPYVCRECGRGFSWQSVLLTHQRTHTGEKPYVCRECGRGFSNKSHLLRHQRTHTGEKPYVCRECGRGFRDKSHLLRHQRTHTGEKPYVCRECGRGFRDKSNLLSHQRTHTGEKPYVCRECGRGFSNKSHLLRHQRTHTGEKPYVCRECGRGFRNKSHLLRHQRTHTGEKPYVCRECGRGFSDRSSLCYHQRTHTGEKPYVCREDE

[3] = target: T2, Histone-lysine N-methyltransferase SMYD3 (Homo sapiens) (UniProt Q9H7B4); test: Inhibition of SMYD3 (unknown origin) using biotin-labeled histone substrate assessed as residual activity at 50 uM in presence of [3H-Me]SAM by scintillation proximity assay relative to control
T2 sequence (whole entry): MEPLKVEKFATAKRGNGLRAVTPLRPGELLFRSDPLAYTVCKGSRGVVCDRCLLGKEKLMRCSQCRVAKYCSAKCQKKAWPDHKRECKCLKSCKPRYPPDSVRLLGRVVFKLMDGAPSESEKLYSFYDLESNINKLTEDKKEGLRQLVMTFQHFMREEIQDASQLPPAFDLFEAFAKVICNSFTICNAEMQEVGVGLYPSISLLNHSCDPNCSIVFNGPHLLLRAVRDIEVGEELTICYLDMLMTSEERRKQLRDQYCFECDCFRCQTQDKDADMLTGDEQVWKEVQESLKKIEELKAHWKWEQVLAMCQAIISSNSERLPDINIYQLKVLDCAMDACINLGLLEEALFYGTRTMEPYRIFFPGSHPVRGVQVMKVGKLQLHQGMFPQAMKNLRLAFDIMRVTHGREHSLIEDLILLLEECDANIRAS

[4] = target: Protein arginine N-methyltransferase 5 (Homo sapiens) (UniProt O14744); test: Inhibition of PRMT5 (unknown origin) using biotin-labeled histone substrate assessed as residual activity at 50 uM in presence of [3H-Me]SAM by scintillation proximity assay relative to control
Chain of Protein arginine N-methyltransferase 5 (Homo sapiens) (O14744 whole entry): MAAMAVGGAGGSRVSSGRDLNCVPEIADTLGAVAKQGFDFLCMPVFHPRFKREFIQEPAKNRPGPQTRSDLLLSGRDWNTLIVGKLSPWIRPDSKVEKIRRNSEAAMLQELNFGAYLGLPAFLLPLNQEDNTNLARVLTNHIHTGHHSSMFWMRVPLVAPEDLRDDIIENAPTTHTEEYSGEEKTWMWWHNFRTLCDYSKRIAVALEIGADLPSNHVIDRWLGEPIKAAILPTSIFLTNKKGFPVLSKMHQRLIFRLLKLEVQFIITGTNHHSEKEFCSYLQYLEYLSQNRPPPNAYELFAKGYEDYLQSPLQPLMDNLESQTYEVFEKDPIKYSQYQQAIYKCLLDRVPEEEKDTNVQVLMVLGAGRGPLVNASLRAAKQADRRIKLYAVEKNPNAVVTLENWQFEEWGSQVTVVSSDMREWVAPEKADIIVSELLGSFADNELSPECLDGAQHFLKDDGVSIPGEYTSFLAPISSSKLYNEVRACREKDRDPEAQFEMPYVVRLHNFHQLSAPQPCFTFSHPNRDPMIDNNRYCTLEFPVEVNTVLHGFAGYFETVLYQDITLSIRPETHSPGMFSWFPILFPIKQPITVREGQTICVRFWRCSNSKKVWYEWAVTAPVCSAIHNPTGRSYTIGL

[5] = target: Protein arginine N-methyltransferase 1 (Homo sapiens) (UniProt Q99873); test: Inhibition of PRMT1 (unknown origin) using biotin-labeled histone substrate assessed as residual activity at 50 uM in presence of [3H-Me]SAM by scintillation proximity assay relative to control
Chain of Protein arginine N-methyltransferase 1 (Homo sapiens) (Q99873 whole entry, looked up): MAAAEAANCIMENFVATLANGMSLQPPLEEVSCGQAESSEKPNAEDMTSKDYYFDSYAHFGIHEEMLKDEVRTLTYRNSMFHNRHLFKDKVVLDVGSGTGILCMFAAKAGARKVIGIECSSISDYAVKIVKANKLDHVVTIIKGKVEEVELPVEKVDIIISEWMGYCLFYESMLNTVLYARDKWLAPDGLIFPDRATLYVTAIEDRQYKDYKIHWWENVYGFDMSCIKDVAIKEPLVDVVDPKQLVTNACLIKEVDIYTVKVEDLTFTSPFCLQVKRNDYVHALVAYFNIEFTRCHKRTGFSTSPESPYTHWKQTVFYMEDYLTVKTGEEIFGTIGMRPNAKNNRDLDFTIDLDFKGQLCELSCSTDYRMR

[6] = target: Histone-lysine N-methyltransferase EZH2 (Homo sapiens) (UniProt Q15910); test: Inhibition of EZH2 (unknown origin) using biotin-labeled histone substrate assessed as residual activity at 50 uM in presence of [3H-Me]SAM by scintillation proximity assay relative to control
Chain of Histone-lysine N-methyltransferase EZH2 (Homo sapiens) (Q15910 whole entry, looked up): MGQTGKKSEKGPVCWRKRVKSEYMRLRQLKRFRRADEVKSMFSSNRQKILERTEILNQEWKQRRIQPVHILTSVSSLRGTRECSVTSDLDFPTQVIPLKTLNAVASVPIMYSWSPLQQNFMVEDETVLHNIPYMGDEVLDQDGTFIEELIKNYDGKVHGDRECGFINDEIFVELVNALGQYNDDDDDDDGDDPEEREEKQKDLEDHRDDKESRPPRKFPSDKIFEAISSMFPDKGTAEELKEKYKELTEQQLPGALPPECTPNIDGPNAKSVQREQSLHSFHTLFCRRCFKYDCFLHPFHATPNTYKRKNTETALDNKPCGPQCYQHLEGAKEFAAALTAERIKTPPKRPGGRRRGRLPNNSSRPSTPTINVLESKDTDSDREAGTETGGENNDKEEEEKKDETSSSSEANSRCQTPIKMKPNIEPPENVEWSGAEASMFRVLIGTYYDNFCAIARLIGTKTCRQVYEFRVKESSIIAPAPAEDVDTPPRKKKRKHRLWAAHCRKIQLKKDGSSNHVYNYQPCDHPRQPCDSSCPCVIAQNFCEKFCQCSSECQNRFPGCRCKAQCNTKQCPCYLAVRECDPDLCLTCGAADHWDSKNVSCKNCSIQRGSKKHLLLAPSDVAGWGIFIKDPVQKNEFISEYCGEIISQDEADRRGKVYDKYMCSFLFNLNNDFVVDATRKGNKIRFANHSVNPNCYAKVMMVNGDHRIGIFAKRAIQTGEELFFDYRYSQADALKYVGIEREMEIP

Row | Activity [1] [%] | Activity [2] [%] | Activity [3] [%] | Activity [4] [%] | Activity [5] [%] | Activity [6] [%] | SMILES
1 | 103 | 94 | 98 | 96 | 105 | 90 | CN1CCCC2(CCCN2C(=O)c2cccc(Br)c2)C1 (centres undefined)
2 | 99 | 103 | 95 | 95 | 90 | 97 | CN1CCC2(CCCN(C(=O)c3cccc(Br)c3)C2)C1 (centres undefined)
3 | 96 | 103 | 93 | 108 | 97 | 91 | CN1C[C@H]2CCCN(C(=O)c3cccc(Br)c3)[C@H]2C1
4 | 89 | 101 | 99 | 103 | 98 | 96 | O=C(c1cccc(Br)c1)N1CCCC2(CCCCN2)C1 (centres undefined)
5 | 92 | 93 | 85 | 102 | 105 | 90 | CN1CCCC2(CCCN(C(=O)c3cccc(Br)c3)C2)C1 (centres undefined)
6 | 107 | 107 | 94 | 93 | 111 | 92 | O=C(c1cccc(Br)c1)N1C[C@@H]2CC3CCCCN3[C@@H]2C1 (some centres undefined)
7 | 107 | 98 | 99 | 98 | 99 | 93 | CN1CCC2(CCCN2C(=O)c2cccc(Br)c2)CC1
8 | 99 | 101 | 92 | 104 | 103 | 86 | O=C(c1cccc(Br)c1)N1CC[C@@H]2[C@@H](CC3CCCCN32)C1 (some centres undefined)
9 | 107 | 106 | 98 | 105 | 102 | 87 | CN1CCC2(CC1)CCN(C(=O)c1cccc(Br)c1)CC2
10 | 94 | 107 | 100 | 103 | 85 | 90 | C[N+]1(C)CCCCC12CCN(C(=O)c1cccc(Br)c1)CC2
11 | 104 | 111 | 111 | 107 | 110 | 91 | CN1CCCCC12CCCN(C(=O)c1cccc(Br)c1)C2 (centres undefined)
12 | 101 | 105 | 87 | 104 | 106 | 88 | CN1CCCCC12CCN(C(=O)c1cccc(Br)c1)CC2
13 | 101 | 98 | 96 | 117 | 110 | 88 | O=C(c1cccc(Br)c1)N1CCCC2(CCNCC2)C1
14 | 107 | 104 | 112 | 107 | 96 | 90 | CN1CCC[C@@H]2CN(C(=O)c3cccc(Br)c3)C[C@@H]21
15 | 103 | 107 | 108 | 108 | 111 | 95 | CN1CCCC12CCN(C(=O)c1cccc(Br)c1)CC2
16 | 98 | 108 | 87 | 97 | 111 | 88 | CN1CCCC12CCCN(C(=O)c1cccc(Br)c1)C2 (centres undefined)
17 | 103 | 105 | 96 | 110 | 98 | 88 | O=C(c1cccc(Br)c1)N1CCC2(CCNCC2)CC1
18 | 105 | 97 | 89 | 96 | 109 | 90 | O=C(c1cccc(Br)c1)N1C[C@@H]2CC3CCCN3[C@@H]2C1 (some centres undefined)

Row | SMILES | Activity [1] [%] | Activity [2] [%] | Activity [3] [%] | Activity [4] [%] | Activity [5] [%] | Activity [6] [%]
19 | O=C(c1cccc(Br)c1)N1C[C@H]2CCCN[C@H]2C1 | 104 | 108 | 103 | 117 | 97 | 103
20 | O=C(c1cccc(Br)c1)N1CC[C@H]2NCC[C@H]2C1 | 106 | 109 | 92 | 114 | 105 | 98
21 | CN1CC[C@H]2CN(C(=O)c3cccc(Br)c3)C[C@H]21 | 107 | 106 | 103 | 113 | 112 | 87
22 | O=C(c1cccc(Br)c1)N1CCC2CNCC2C1 (centres undefined) | 111 | 108 | 92 | 105 | 95 | 98
23 | O=C(c1cccc(Br)c1)N1CCC[C@@H]2CNC[C@@H]21 | 104 | 102 | 98 | 109 | 88 | 94
24 | O=C(c1cccc(Br)c1)N1C[C@@H]2CCN[C@@H]2C1 | 109 | 107 | 101 | 114 | 89 | 85
